ChEMBL document CHEMBL1158121, “Antihyperglycemic activity and chemical constituents of Eysenhardtia platycarpa” (2006)

Test system: Rattus norvegicus
Experiment: Antihyperglycemic activity in Streptozotocin-induced diabetic Wistar rat assessed as decrease in blood glucose level at 31 mg/kg, po after 7 hrs
Assay type: functional
Set-up: scale not given: the % may be the effect or the level left

For `CC(=O)O[C@H]1CC[C@]2(C)[C@H]3CC=C4[C@@H]5CC(C)(C)CC[C@]5(C(=O)O)CC[C@@]4(C)[C@]3(C)CC[C@H]2C1(C)C` [ACETYL OLEANOLIC ACID], which Activity is on record?
The Activity was -26.3%.
